Format in all cases: cell-based
Assay [1] concerns the target T1, HPK1 (Homo sapiens, UniProt Q92918).
T1 construct: endogenous in cells; host or cells: Jurkat cells
Kind of assay: HPK1 degradation in Jurkat cells (Western blot). The settings on record: for Degradation rate (10 nM) / Degradation rate (100 nM): HPK1, treatment time 12 h; for Degradation rate (10 nM): compound 10 nM; for Degradation rate (12 h): 12 h (Table 2); for HPK1 degradation rate at 0.1 µM: Jurkat, treatment time 6 h. The method, then: (§1) S1: Jurkat cells were resuscitated, and then subjected to adherent culture for 12 h, compounds were added, the compound concentrations were fixed (treatment time was 0 h, 3 h, 6 h, 12 h, 24 h and 72 h) or the treatment time was fixed (compound concentrations were 0 nM, 1 nM, 10 nM, 100 nM and 1000 nM);
(§2) S2: the culture solution was poured out, the cells were washed with 3 mL of PBS pre-cooled at 4° C., then the washing solution was discarded, an appropriate amount of lysis solution containing PMSF (100×) was added according to the cell amount, the mixture was uniformly mixed, then placed on ice for lysis for 30 min, and centrifuged at 12000 rpm and at 4° C. for 5 min, (a centrifuge was started for pre-cooling in advance), and the centrifuged supernatant was transferred into a new centrifuge tube and prepared for quantification;
(§3) S3: an BCA quantitative reagent of Pierce™ BCA Protein Assay Kit (23225) was added at 200 uL/well, then 20 uL of BSA with known different concentrations was added to prepare a protein quantitative standard curve and a sample protein to be detected with avoiding generation of bubbles, the mixture was incubated for 30 min in the dark at 37° C., an OD value was measured at 562 nm, then an appropriate amount of SDS-PAGE loading buffer was added to the protein sample, and the reaction mixture was heated for 5 min in a boiling water bath to fully denature the protein, and stored at −20° C. for later use;
(§4) S4: an SDS-PAGE gel was prepared, wherein the voltage of a concentrated gel was 90 V, and the voltage of a separation gel was 120 V, a membrane was transferred for 1 h at 4° C. and at a voltage of 100 V, after the membrane was transferred, the protein membrane was immediately placed in a prepared 5% BSA solution, and the mixture was slowly shaken on a shaker, and sealed for 1 h at room temperature;
(§5) S5: the primary antibody was diluted according to an appropriate proportion according to the specifications of HPK1 Antibody (4472S CST), GLK (D1L4G) Rabbit mAb (92427S CST), SLP-76 (D1R1A) Rabbit mAb (70896S CST), Phospho-SLP-76 (Ser376) (D7S1K) XP® Rabbit mAb (92711T CST) and β-actin Mouse Monoclonal antibody (BE0021 easybio), then incubated overnight with slow shaking at 4° C., and washed 3 times with PBST for 10 min/time;
(§6) S6: Goat Anti-Rabbit IgG (H&L)-HRP Conjugated (BE0101 easybio) or Goat Anti-Mouse IgG (H&L)-HRP Conjugated (BE0102 easybio) was selected according to the primary antibody, and the secondary antibody was diluted according to an appropriate proportion according to the specification of the secondary antibody, then incubated for 1 h at room temperature with slow shaking, and washed 3 times with PBST for 10 min/time; and
(§7) S7: an ECL luminescence was added, the results were observed by a developing machine, Western results were quantified using Image J software, and the degradation rates (HPK1 and GLK) or inhibition rates (SLP76 Ser376 phosphorylation) were calculated by comparison with a control group to which no compounds were added, (degradation rate/inhibition rate=1−administration group/control group).
For orientation: Immunoblotting shows a protein as a band on a membrane.

Assay [2] concerns the target T1, HPK1. Kind of assay: HPK1 degradation in Jurkat cells (Western blot). The settings on record: compound 100 nM.
For assay [3], the system named is SLP76 Ser376 phosphorylation. Kind of assay: Inhibition of SLP76 Ser376 phosphorylation in Jurkat cells (Western blot). The settings on record: Homo sapiens, compound 100 nM. How it is done:
as §1, §2, §3, §4, §5, §6, §7

For another assay, the target named is T2, GLK (Homo sapiens, UniProt Q8IVH8).
T2 construct: endogenous in cells; host or cells: Jurkat cells
T2 sequence (Q8IVH8 1-894): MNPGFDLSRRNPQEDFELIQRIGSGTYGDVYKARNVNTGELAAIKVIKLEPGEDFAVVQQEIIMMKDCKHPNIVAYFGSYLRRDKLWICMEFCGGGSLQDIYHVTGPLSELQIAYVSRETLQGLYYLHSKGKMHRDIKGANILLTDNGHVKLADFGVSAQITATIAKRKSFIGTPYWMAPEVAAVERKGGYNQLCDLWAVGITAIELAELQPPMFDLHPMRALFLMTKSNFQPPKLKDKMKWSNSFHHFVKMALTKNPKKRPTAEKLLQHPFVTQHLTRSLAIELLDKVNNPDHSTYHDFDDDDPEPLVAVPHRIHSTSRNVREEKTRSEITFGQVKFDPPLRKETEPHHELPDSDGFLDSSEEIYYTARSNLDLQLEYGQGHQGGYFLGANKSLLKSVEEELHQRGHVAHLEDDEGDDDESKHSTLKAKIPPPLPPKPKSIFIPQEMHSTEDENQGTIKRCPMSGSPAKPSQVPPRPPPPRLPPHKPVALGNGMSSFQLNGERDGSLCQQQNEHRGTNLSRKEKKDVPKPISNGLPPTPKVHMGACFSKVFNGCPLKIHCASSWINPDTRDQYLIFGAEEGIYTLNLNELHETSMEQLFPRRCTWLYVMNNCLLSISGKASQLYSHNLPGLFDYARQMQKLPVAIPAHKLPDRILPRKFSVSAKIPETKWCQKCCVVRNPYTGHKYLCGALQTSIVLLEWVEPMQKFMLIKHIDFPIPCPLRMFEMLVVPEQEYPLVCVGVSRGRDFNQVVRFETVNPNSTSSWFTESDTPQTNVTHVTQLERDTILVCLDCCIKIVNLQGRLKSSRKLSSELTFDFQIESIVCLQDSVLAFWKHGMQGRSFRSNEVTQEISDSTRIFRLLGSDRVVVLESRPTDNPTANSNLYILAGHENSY
Kind of assay: GLK degradation in Jurkat cells (Western blot). Particulars: treatment time 6 h, compound 100 nM. The method, then:
as §1, §2, §3, §4, §5, §6, §7

[4] abbreviates: treatment time 6 h, read-out: SLP76 phosphorylation inhibition rate.

Where two headings read alike, the source gives them in different places.

T1 sequence (Q92918 whole entry): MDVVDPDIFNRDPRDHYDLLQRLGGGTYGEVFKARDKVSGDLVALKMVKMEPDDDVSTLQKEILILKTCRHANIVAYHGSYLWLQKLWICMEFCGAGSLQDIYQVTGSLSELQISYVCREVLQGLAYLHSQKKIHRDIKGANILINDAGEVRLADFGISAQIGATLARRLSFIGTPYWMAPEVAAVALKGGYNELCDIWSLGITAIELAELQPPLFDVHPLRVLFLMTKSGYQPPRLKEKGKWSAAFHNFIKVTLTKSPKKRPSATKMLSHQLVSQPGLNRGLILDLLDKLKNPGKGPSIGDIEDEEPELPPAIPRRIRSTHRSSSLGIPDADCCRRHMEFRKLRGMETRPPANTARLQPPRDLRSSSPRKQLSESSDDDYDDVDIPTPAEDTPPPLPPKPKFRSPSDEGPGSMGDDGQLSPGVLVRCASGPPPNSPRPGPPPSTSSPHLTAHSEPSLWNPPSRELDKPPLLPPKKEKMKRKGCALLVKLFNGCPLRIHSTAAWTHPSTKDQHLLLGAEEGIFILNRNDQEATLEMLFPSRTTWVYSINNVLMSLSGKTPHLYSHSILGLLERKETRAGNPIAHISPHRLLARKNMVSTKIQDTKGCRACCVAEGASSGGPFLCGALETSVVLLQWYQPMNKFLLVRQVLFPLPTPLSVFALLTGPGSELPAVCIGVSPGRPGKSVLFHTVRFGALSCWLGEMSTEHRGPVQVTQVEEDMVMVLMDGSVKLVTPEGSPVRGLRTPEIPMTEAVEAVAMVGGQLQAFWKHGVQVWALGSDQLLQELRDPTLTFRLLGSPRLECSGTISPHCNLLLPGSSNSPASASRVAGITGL

Consider `CC(C)(O)C#Cc1cccc(COc2cc(-c3cnc(C4CCN(C(=O)CCCCCCCOc5cccc6c5C(=O)N(C5CCC(=O)NC5=O)C6=O)CC4)s3)cnc2N)c1` (centres unmarked) [Compound C1], for which the “Degradation rate (10 nM)” value on HPK1 [1] came to 47%. The “Degradation rate (100 nM)” value on HPK1 [1] (compound 100 nM) is reported as 68%.
The corresponding values for `CN1C(=O)CCC(N2C(=O)c3cccc(OCCCCCCCC(=O)N4CCC(c5ncc(-c6cnc(N)c(OCc7cccc(C#CC(C)(C)O)c7)c6)s5)CC4)c3C2=O)C1=O` (centres unmarked) [Compound C2] are 39% and 33%.
A word on the inhibition: it is the drop in the measured response relative to a control, in per cent. Regarding `CC(C)(O)C#Cc1cccc(COc2cc(-c3cnc(C4CCN(C(=O)CCCCCCCCCOc5cccc6c5C(=O)N(C5CCC(=O)NC5=O)C6=O)CC4)s3)cnc2N)c1` (centres unmarked) [Compound C3], the “Degradation rate (48 h)” value at HPK1 [2] is 11%. In assay [3] (maximum over different time points, read-out: Maximum inhibition rate of SLP76 Ser376 phosphorylation), the inhibition at 0.1 µM was determined as 81%. Also, on HPK1 [1] (HPK1, compound 100 nM, 3 h), the “Degradation rate (3 h)” value worked out at 54%. The “Degradation rate (6 h)” value at HPK1 [1] (HPK1, compound 100 nM, 6 h) is given as 52%. Moreover, on HPK1 [1] (HPK1, compound 100 nM), the “Degradation rate (12 h)” value was found to be 58% and the “Degradation rate (24 h)” value is listed as 3%. Besides, the “Degradation rate (10 nM)” value at HPK1 [1] is on record as 15%. Moreover, the “Degradation rate (100 nM)” value on HPK1 [1] (compound 100 nM) stood at 75%. For the same molecule, the Dmax at 0.1 µM on HPK1 [1] (compound 100 nM, maximum over different time points, read-out: Maximum degradation rate of HPK1) was found to be 62%.
In the case of `CC(C)(O)C#Cc1cccc(COc2cc(-c3cnc(C4CCN(C(=O)CCOCCOCCOCCOCCOc5cccc6c5C(=O)N(C5CCC(=O)NC5=O)C6=O)CC4)s3)cnc2N)c1` (centres unmarked) [Compound C7], the “Degradation rate (48 h)” value at HPK1 [2] is −40%. Besides, on HPK1 [1] (HPK1, compound 100 nM), the “Degradation rate (12 h)” value was 58% and the “Degradation rate (24 h)” value is on record as 86%. For the same molecule, on HPK1 [1] (HPK1, compound 100 nM, 72 h), the “Degradation rate (72 h)” value is recorded as −9%. Also, the “Degradation rate (10 nM)” value at HPK1 [1] is given as 72%. The “Degradation rate (100 nM)” value on HPK1 [1] (compound 100 nM) is recorded as 68%.
Take `CC(C)(O)C#Cc1cccc(COc2cc(-c3cnc(C4CCN(C(=O)CCOCCCCCOc5cccc6c5C(=O)N(C5CCC(=O)NC5=O)C6=O)CC4)s3)cnc2N)c1` (centres unmarked) [Compound C8]: the inhibition at 0.1 µM in assay [3] (setting [4]) was found to be 51%. The HPK1 degradation rate at 0.1 µM on HPK1 [1] (6 h, compound 100 nM) stood at 66%. Also, the GLK degradation rate at GLK was found to be 34%.
The corresponding values for `CC(C)(O)C#Cc1cccc(COc2cc(-c3cnc(C4CCN(C(=O)CCOCCCCCCOc5cccc6c5C(=O)N(C5CCC(=O)NC5=O)C6=O)CC4)s3)cnc2N)c1` (centres unmarked) [Compound C9] are 61%, 46% and −34%.
For `CC(C)(O)C#Cc1cccc(COc2cc(-c3cnc(C4CCN(C(=O)CCOCCCCCCCCOc5cccc6c5C(=O)N(C5CCC(=O)NC5=O)C6=O)CC4)s3)cnc2N)c1` (centres unmarked) [Compound C11], at HPK1 [1] (6 h, compound 100 nM), the HPK1 degradation rate at 0.1 µM came to 30%. On GLK, the GLK degradation rate is on record as −36%.
As to `CC(C)(O)C#Cc1cccc(COc2cc(-c3cnc(C4CCN(C(=O)CCNC(=O)CCCOc5cccc6c5C(=O)N(C5CCC(=O)NC5=O)C6=O)CC4)s3)cnc2N)c1` (centres unmarked) [Compound C13], the inhibition at 0.1 µM in assay [3] (setting [4]) came out at 4%. For the same molecule, the HPK1 degradation rate at 0.1 µM on HPK1 [1] (6 h, compound 100 nM) is 38%. Also, at GLK, the GLK degradation rate was 43%.
`CC(C)(O)C#Cc1cccc(COc2cc(-c3cnc(C4CCN(C(=O)CCNC(=O)CCCCOc5cccc6c5C(=O)N(C5CCC(=O)NC5=O)C6=O)CC4)s3)cnc2N)c1` (centres unmarked) [Compound C14]: the inhibition at 0.1 µM in assay [3] (setting [4]) is 26%. Also, the HPK1 degradation rate at 0.1 µM on HPK1 [1] (6 h, compound 100 nM) amounted to 58%. Also, the GLK degradation rate at GLK is listed as 60%.
The corresponding values for `CC(C)(O)C#Cc1cccc(COc2cc(-c3cnc(C4CCN(C(=O)CCNC(=O)CCCCCOc5cccc6c5C(=O)N(C5CCC(=O)NC5=O)C6=O)CC4)s3)cnc2N)c1` (centres unmarked) [Compound C15] are -7%, -27% and 38%.
As for `CC(C)(O)C#Cc1cccc(COc2cc(-c3cnc(C4CCN(C(=O)CCNC(=O)CCCCCCOc5cccc6c5C(=O)N(C5CCC(=O)NC5=O)C6=O)CC4)s3)cnc2N)c1` (centres unmarked) [Compound C16], the inhibition at 0.1 µM in assay [3] (setting [4]) was 24%. The HPK1 degradation rate at 0.1 µM at HPK1 [1] (6 h, compound 100 nM) stood at 49%. Moreover, the GLK degradation rate on GLK came to 74%.
The corresponding values for `CC(C)(O)C#Cc1cccc(COc2cc(-c3cnc(C4CCN(C(=O)C5CCN(C(=O)CCCCOc6cccc7c6C(=O)N(C6CCC(=O)NC6=O)C7=O)CC5)CC4)s3)cnc2N)c1` (centres unmarked) [Compound C17] are 22%, -7% and 42%.
Take `CC(C)(O)C#Cc1cccc(COc2cc(-c3cnc(C4CCN(C(=O)C5CCN(C(=O)CCCCCOc6cccc7c6C(=O)N(C6CCC(=O)NC6=O)C7=O)CC5)CC4)s3)cnc2N)c1` (centres unmarked) [Compound C18]: the inhibition at 0.1 µM in assay [3] (setting [4]) is 34%. Further, on HPK1 [1] (6 h, compound 100 nM), the HPK1 degradation rate at 0.1 µM was 39%. The GLK degradation rate on GLK is 71%.
On to `CC(C)(O)C#Cc1cccc(COc2cc(-c3cnc(C4CCN(C(=O)C5CCN(C(=O)CCCCCCOc6cccc7c6C(=O)N(C6CCC(=O)NC6=O)C7=O)CC5)CC4)s3)cnc2N)c1` (centres unmarked) [Compound C19], for which, in assay [3] (setting [4]), the inhibition at 0.1 µM worked out at 3%.
In the case of `CC(C)(O)C#Cc1cccc(COc2cc(-c3cnc(C4CCN(C(=O)Cn5cc(COCCOc6cccc7c6C(=O)N(C6CCC(=O)NC6=O)C7=O)nn5)CC4)s3)cnc2N)c1` (centres unmarked) [Compound C20], in assay [3] (setting [4]), the inhibition at 0.1 µM amounted to 7%. Moreover, the “HPK1 degradation rate (12 h)” value at HPK1 [1] (12 h (in-cell remark of Table 4), compound 100 nM) is given as 41%. Besides, the HPK1 degradation rate at 0.1 µM on HPK1 [1] (6 h, compound 100 nM) is -15%. Besides, the GLK degradation rate at GLK turned out to be 15%.
